Assay results taken from patent publication US20170197935A1, “INHIBITORS OF DNA GYRASE FOR THE TREATMENT OF BACTERIAL INFECTIONS” (Vitas Pharma Research Private Limited, priority 2012, published 2017).
Values after ≈ are worked out from the molar mass of the structure shown. Where two headings read alike, the source gives them in different places.

How the values were obtained:
[1] = tested on: Moraxella catarrhalis (ATCC 8176); test: MIC by microbroth dilution, Moraxella catarrhalis ATCC 8176; type: cell-based; conditions: ATCC8176
Experimental: (§1) Shown below are the microbiological activities of representative compounds of Formula I of the invention. The compounds were tested by the microbroth dilution method (National committee for Clinical Laboratory Standards, 2011, […]-08) and the Minimum Inhibitory Concentration (MIC) was determined.

[2] = tested on: K. pneumoniae (ATCC 700603); test: MIC by microbroth dilution, K. pneumoniae ATCC 700603; type: cell-based; conditions: Klebsiella pneumoniae, ATCC700603, Formula I compounds
Experimental: (§2) Shown below are the microbiological activities of representative compounds of Formula I of the invention. The compounds were tested by the microbroth dilution method (National committee for Clinical Laboratory Standards, 2011, M07-08) and the Minimum Inhibitory Concentration (MIC) was determined.
(§3) Analysis of microbiological activity of compounds shown below are the microbiological activities of representative compounds of Formula II of the invention. The compounds were tested by the microbroth dilution method as per the reference in Example 1.

E. coli (ATCC 25922) = test: MIC by microbroth dilution, E. coli ATCC 25922; type: cell-based; conditions: Escherichia coli
Experimental: as §2, §3

[3] = tested on: Streptococcus pneumoniae (ATCC 6301); test: MIC by microbroth dilution, Streptococcus pneumoniae ATCC 6301; type: cell-based; conditions: ATCC6301
Experimental: as §1

E. coli Gyrase = molecular target: T1, E. coli Gyrase (Escherichia coli, UniProt P0AES4+P0AES6); test: in vitro Gyrase supercoiling assay (Inspiralis kit); type: biochemical; conditions: 1 hour at 37° C., read-out: % inhibition of DNA supercoiling activity; for inhibition at 0.1 µM: 0.1 μM compound; for inhibition at 1 µM: 1 μM compound
T1 construct: purchased Inspiralis
Experimental: To test for target specificity, the activity of compounds was evaluated in an in vitro Gyrase assay using recombinant Gyrase protein as per the instructions of the assay kit (Inspiralis). The assay measures the ability of E. coli Gyrase to convert relaxed plasmid DNA into the supercoiled form. The enzyme is incubated with the substrate (relaxed DNA) in the presence and absence of compounds for 1 hour at 37° C. and the DNA is run on a gel at low voltage for several hours. The gel is then stained with Ethidium bromide and DNA in the different forms is quantified using DNA imaging and quantification software (Image Lab). The activity of the enzyme is proportional to the amount of supercoiled form detected.

[4] = tested on: Methicillin resistant Staphylococcus aureus (ATCC 33591); test: MIC by microbroth dilution, MRSA ATCC 33591; type: cell-based
Experimental: as §2, §3

[5] = tested on: Staphylococcus aureus (ATCC 29213); test: MIC by microbroth dilution, Staphylococcus aureus ATCC 29213; type: cell-based; conditions: ATCC29213
Experimental: as §1

[6] = tested on: Enterococcus faecalis (ATCC 29212); test: MIC by microbroth dilution, Enterococcus faecalis ATCC 29212; type: cell-based; conditions: ATCC29212
Experimental: as §1

[7] = molecular target: T2, ciprofloxacin resistant recombinant Gyrase protein (with mutation S83L) (Escherichia coli, UniProt P0AES4+P0AES6, S83L); test: Gyrase supercoiling assay with ciprofloxacin resistant Gyrase (S83L); type: biochemical; conditions: read-out: Target specificity: % inhibition of supercoiling activity
T2 construct: purchased Inspiralis
Experimental: The enzyme is incubated with the substrate (relaxed DNA) in the presence and absence of compounds for 1 hour at 37° C. and the DNA is run on a gel at low voltage for several hours. The amount of supercoiled DNA is quantified using DNA imaging and quantification software (Image Lab). The activity of the enzyme is proportional to the amount of supercoiled form detected.

E. faecalis ATCC 51299 = test: MIC by microbroth dilution, E. faecalis ATCC 51299; type: cell-based; conditions: Enterococcus faecalis, ATCC51299, Formula II compounds, read-out: Minimum Inhibitory Concentration (MIC) E. faecalis ATCC 51299
Experimental: as §2, §3

Pseudomonas ATCC 27853 = test: MIC by microbroth dilution, Pseudomonas ATCC 27853; type: cell-based; conditions: ATCC27853, Formula II compounds, read-out: Minimum Inhibitory Concentration (MIC) Pseudomonas ATCC 27853
Experimental: as §2, §3

Acinetobacter BAA747 = test: MIC by microbroth dilution, Acinetobacter BAA747; type: cell-based; conditions: Formula II compounds, read-out: Minimum Inhibitory Concentration (MIC) Acinetobacter BAA747
Experimental: as §2, §3

[8] = ATCC25922, Formula I compounds, read-out: MIC E. coli (ATCC 25922)
[9] = ATCC33591, Formula I compounds, read-out: MIC Methicillin resistant Staphylococcus aureus (ATCC 33591)
[10] = ATCC25922, Formula II compounds, read-out: Minimum Inhibitory Concentration (MIC) E. coli ATCC 25922
[11] = Formula II compounds, read-out: Minimum Inhibitory Concentration (MIC) MRSA ATCC 33591

Structure (SMILES)	MIC [1] [µg/mL]	MIC [2] [µg/mL]	MIC (E. coli (ATCC 25922); [8]) [µg/mL]	MIC [3] [µg/mL]	inhibition at 0.1 µM (E. coli Gyrase) [%]	inhibition at 1 µM (E. coli Gyrase) [%]	MIC [4, 9] [µg/mL]	MIC [5] [µg/mL]	MIC [6] [µg/mL]	inhibition at 0.1 µM [7] [%]	inhibition at 1 µM [7] [%]	MIC (E. faecalis ATCC 51299) [µg/mL]	MIC (Pseudomonas ATCC 27853) [µg/mL]	MIC (E. coli (ATCC 25922); [10]) [µg/mL]	MIC [4, 11] [µg/mL]	MIC (Acinetobacter BAA747) [µg/mL]
COc1ccc2ncc(C#N)c(CCN3CCC(NC(=O)c4ccc([N+](=O)[O-])c(F)c4)CC3)c2c1 [VT-03-00055]	> 32	> 32	> 32	0.03 (≈ 0.0628 µM)	52.7	71	4 (≈ 8.38 µM)	1 (≈ 2.09 µM)	0.25 (≈ 0.524 µM)							
COc1ccc2ncc(=O)n(CCN3CCC(NCc4ccc(Cl)c([N+](=O)[O-])c4)CC3)c2c1 [VT-03-00128]										34	51	0.25 (≈ 0.53 µM)	8 (≈ 17 µM)	0.5 to 1 (≈ 1.06 to 2.12 µM)	0.015 (≈ 0.0318 µM)	0.25 (≈ 0.53 µM)
CNC(=O)c1ccc2ncc(=O)n(CCN3CCC(NCc4ccc(C)c([N+](=O)[O-])c4)CC3)c2c1 [VT-03-00108]												2 (≈ 4.18 µM)		8 (≈ 16.7 µM)	0.25 (≈ 0.522 µM)	
Cc1ccc(CNC2CCN(CCn3c(=O)cnc4ccc(OC(F)(F)F)cc43)CC2)cc1[N+](=O)[O-] [VT-03-00114]												0.5 (≈ 0.989 µM)		2 (≈ 3.96 µM)	0.06 (≈ 0.119 µM)	
COc1ccc2ncc(=O)n(CCN3CCC(NCc4ccc(Br)c([N+](=O)[O-])c4)CC3)c2c1 [VT-03-00066]	4 (≈ 7.75 µM)	> 32	16 (≈ 31 µM)	1 (≈ 1.94 µM)	55.9	89.9	1 (≈ 1.94 µM)	0.5 (≈ 0.968 µM)	4 (≈ 7.75 µM)							
COc1ccc2ncc(C#N)c(CCN3CCC(NCc4cc([N+](=O)[O-])ccn4)CC3)c2c1 [VT-03-00079]	4 (≈ 8.96 µM)		32 (≈ 71.7 µM)	2 (≈ 4.48 µM)	16.7	87.6	2 (≈ 4.48 µM)	2 (≈ 4.48 µM)	32 (≈ 71.7 µM)							
Cc1ccc(CNC2CCN(CCn3c(=O)cnc4ccc(C#N)cc43)CC2)cc1F [VT-03-00103]										55.8	87.5	0.25 (≈ 0.596 µM)	32 (≈ 76.3 µM)	0.5 (≈ 1.19 µM)	0.03 (≈ 0.0715 µM)	1 (≈ 2.38 µM)
COc1ccc2ncc(C#N)c(CCN3CCC(NCc4cc5c(c([N+](=O)[O-])c4)OCO5)CC3)c2c1 [VT-03-00077]	0.25 (≈ 0.511 µM)	> 16	2 (≈ 4.09 µM)	0.12 (≈ 0.245 µM)	38.8	88.5	0.12 (≈ 0.245 µM)	0.06 (≈ 0.123 µM)	1 (≈ 2.04 µM)							
COc1ccc2ncc(=O)n(CCN3CCC(NCc4ccc(C)c(F)c4)CC3)c2n1 [VT-03-00101]										95.9	92.3	16 (≈ 37.6 µM)		> 16	4 (≈ 9.4 µM)	
Cc1ccc(CNC2CCN(CCn3c(=O)cnc4ccc(F)cc43)CC2)cc1C#N [VT-03-00117]										88.2	97.5	0.25 (≈ 0.596 µM)	16 (≈ 38.1 µM)	0.5 (≈ 1.19 µM)	0.125 (≈ 0.298 µM)	0.25 (≈ 0.596 µM)
Cc1ccc(CNC2CCN(CCn3c(=O)cnc4ncc(C#N)cc43)CC2)cc1[N+](=O)[O-] [VT-03-00119]												16 (≈ 35.8 µM)	> 32	8 (≈ 17.9 µM)	4 (≈ 8.94 µM)	8 (≈ 17.9 µM)
Cc1ccc(CNC2CCN(CCn3c(=O)cnc4ccc(Cl)nc43)CC2)cc1C#N [VT-03-00131]												0.25 (≈ 0.572 µM)	16 (≈ 36.6 µM)	0.25 to 1 (≈ 0.572 to 2.29 µM)	0.25 (≈ 0.572 µM)	0.25 (≈ 0.572 µM)
COc1ccc2ncc(C#N)c(CCN3CCC(NCc4ccc(F)c([N+](=O)[O-])c4)CC3)c2c1 [VT-03-00048]	1 (≈ 2.16 µM)	> 32	8 (≈ 17.3 µM)	0.5 (≈ 1.08 µM)	97.5	97.3	0.5 (≈ 1.08 µM)	0.12 (≈ 0.259 µM)	4 (≈ 8.63 µM)							
